Results from patent publication EP0476120B1, “PROCESS FOR PREPARING EQUIMOLAR SALTS OF ASPARTIC ACID AND MAGNESIUM, MAGNESIUM ASPARTATE SALT OBTAINED BY SAID PROCESS AND ITS APPLICATIONS” (LA[…] SPINDLER, priority 1990, dated 1991).
Values joined by “and” are separate entries in the source; they are usually repeats but may differ in a detail not shown here. Identical values can stand only once. Like-named read-outs stand apart in the source and are kept apart here.

Assays:
[1] = test system: singes cynomolggus (Macaca fascicularis); conditions: monkey
Source text: L'étude a été réalisée chez sept singes cynomolggus (Macaca fascicularis), de sexe mâle et femelle, pesant entre 2 et 5 kg.
Un mois avant le début de l'étude, sous anesthésie générale (kétamine + xylazine) huit électrodes (boules d'argent) ont été implantées dans la table osseuse, au niveau des aires frontale, centrale, pariétale et occipitale droites et gauche. L'électrocorticogramme a été enregistré sur un électroencéphalographe REEGA mini-huit (Alvar Electronic) en dérivations monopolaires par rapport à une référence commune.
Les enregistrements ont été réalisés sur des animaux habitués au siège à contention, en position assise, dans une pièce calme mais non insonorisée, en ambiance lumineuse tamisée.
Les huit dérivations EEG ont été analysées simultanément par un Neuromapper 1620 (Neuroscience) qui extrait du signal les transformées de Fourier ("Fast Fourier Transform" : FFT). En fait, 90 échantillons de 2 secondes, soit 3 minutes de tracé exempt d'artefact, ont été analysés. Les données recueillies correspondent à l'amplitude (»V) de chacune des 5 bandes de fréquence EEG classiques selon les bornes suivantes : delta de 0 à 4 Hz ; thêta de 7 à 8 Hz ; alpha de 8 à 13 Hz, bêta₁ de 13 à 20 Hz ; bêta₂ de 20 à 30 Hz.
Pour chacune de ces bandes ont ensuite été calculées : • Les puissances absolues en »V² • les puissances relatives (%), c'est-à-dire la puissance de chacune des bandes de fréquence rapportée à la puissance totale du spectre (power) • la "SEF 95 % (Spectral Edge Frequency 95 %) qui est la fréquence en deçà de laquelle se situent 95 % de la puissance totale du spectre, • le rapport entre fréquences rapides et fréquences lentes : alpha+ bêta/delta + thêta ( α+β/δ+ϑ [formula] )
La dernière ingestion a précédé de 1 heure la seconde administration de diazépam.
Le diazépam (ampoules injectables - Valium® 10 - Roche) a été administré par voie orale, en solution aqueuse, sous un volume de 10 ml/singe, à des doses comprises entre 0,5 mg.kg⁻¹ et 4 mg.kg⁻¹ (doses différentes du fait d'une sensibilité individuelle propre à chaque sujet).
100 (le seuil de probabilité statistique choisi peut paraître élevé ; il est en rapport avec le faible nombre de sujets : n=7). L'ensemble de l'analyse statistique a été obtenu grâce au programme statistique SPSS/PC⁺ (SPSS Inc., Chicago)

souris = conditions: mouse; for nombre de redressements, Total (moyenne): 3 min in cylinder
Source text: Les scores d'activité sont fonction de la surface à explorer. Ils sont également fonction de deux motivations contradictoires : la curiosité et la crainte. Il faut enfin savoir que lorsque la surface offerte permet une activité "horizontale" (marche) la curiosité parait l'emporter; par contre lorsque la surface est réduite et conduit à une activité "verticale" (redressements le long des parois d'un cylindre) il semble que la crainte anxieuse soit davantage présente et conduise à une activité soit diminuée, soit cyclique, et apparemment sans focalisation.
Ces études ont été réalisées chez des souris mâles, de souche NMRI-Han, réparties au hasard en lots de 15 souris (séries traitées) et 20 souris (série contrôle).
Au sortir de l'actimètre, les souris sont placées dans un cylindre en verre (hauteur 30 cm, diamètre 9 cm) L'exploration anxiogène a été mesurée par le nombre de redressements au cours de la première minute passée dans le cylindre, l'activité basale anxiogène étant considérée dans la même enceinte, entre 1 et 3 minutes.
Les doses ont été calculées selon une progression géométrique de base 700 (correspondant au 1/10 de la DL 50) et de raison 2, soit respectivement 175, 350, 700 et 1400 mg.kg⁻¹.
Les traitements sont réalisés 60 minutes avant le test.
Il est identique à celui décrit dans l'exemple précédent.
Les doses ont été calculées selon une progression géométrique de base 700 (correspondant au 1/10 de la DL 50) et de raison 2, soit respectivement 10,95; 21,9; 43,8; 87,5; 175; 350; 700 mg/kg. […] Les derniers traitements ont été réalisés 60 minutes avant le test.

[2] = repeated daily dosing (13 days), 10.95 mg/kg P.O., last dose 60 min before test
[3] = repeated daily dosing (13 days), 21.9 mg/kg P.O., last dose 60 min before test
[4] = repeated daily dosing (13 days), 43.8 mg/kg P.O., last dose 60 min before test
[5] = repeated daily dosing (13 days), 87.5 mg/kg P.O., last dose 60 min before test
[6] = repeated daily dosing (13 days), 175 mg/kg P.O., last dose 60 min before test
[7] = repeated daily dosing (13 days), 350 mg/kg P.O., last dose 60 min before test
[8] = repeated daily dosing (13 days), 700 mg/kg P.O., last dose 60 min before test
[9] = single dose 175 mg.kg⁻¹ P.O., 60 min before test
[10] = single dose 350 mg.kg⁻¹ P.O., 60 min before test
[11] = single dose 700 mg.kg⁻¹ P.O., 60 min before test
[12] = single dose 1400 mg.kg⁻¹ P.O., 60 min before test

α-β-aspartate de magnésium
"SEF 95%" augmentée ([1]; 50 mg.kg⁻¹ orally twice daily for two weeks, before diazepam): 0,5 Hz | puissance relative de la bande β accrue ([1]; 50 mg.kg⁻¹ orally twice daily for two weeks, resting EEG, individual values of 4 of 7 subjects): 4,4% and 3,6% and 6,2% and 13% | ondes delta accrues ([1]; 50 mg.kg⁻¹ orally twice daily for two weeks, individual values among the 3 other monkeys): 5% and 8% | proportion relative de la bande β₂ ([1]; after two weeks of α-β-aspartate de magnésium, before diazepam, reference before any drug 20 %): 23% | nombre de redressements, 1ère minute (moyenne) (souris; [2]): 16 | nombre de redressements, 2ème minute (moyenne) (souris; [2]): 11 | nombre de redressements, 3ème minute (moyenne) (souris; [2]): 8 | nombre de redressements, Total (moyenne) (souris; [2]): 35 | nombre de redressements, 1ère minute (moyenne) (souris; [3]): 14 | nombre de redressements, 2ème minute (moyenne) (souris; [3]): 9 | nombre de redressements, 3ème minute (moyenne) (souris; [3]): 6 | nombre de redressements, Total (moyenne) (souris; [3]): 29 | nombre de redressements, 1ère minute (moyenne) (souris; [4]): 13 | nombre de redressements, 2ème minute (moyenne) (souris; [4]): 9 | nombre de redressements, 3ème minute (moyenne) (souris; [4]): 8 | nombre de redressements, Total (moyenne) (souris; [4]): 30 | nombre de redressements, 1ère minute (moyenne) (souris; [5]): 13 | nombre de redressements, 2ème minute (moyenne) (souris; [5]): 9 | nombre de redressements, 3ème minute (moyenne) (souris; [5]): 8 | nombre de redressements, Total (moyenne) (souris; [5]): 30 | nombre de redressements, 1ère minute (moyenne) (souris; [6]): 12 | nombre de redressements, 2ème minute (moyenne) (souris; [6]): 9 | nombre de redressements, 3ème minute (moyenne) (souris; [6]): 8 | nombre de redressements, Total (moyenne) (souris; [6]): 29 | nombre de redressements, 1ère minute (moyenne) (souris; [7]): 13 | nombre de redressements, 2ème minute (moyenne) (souris; [7]): 10 | nombre de redressements, 3ème minute (moyenne) (souris; [7]): 8 | nombre de redressements, Total (moyenne) (souris; [7]): 31 | nombre de redressements, 1ère minute (moyenne) (souris; [8]): 14 | nombre de redressements, 2ème minute (moyenne) (souris; [8]): 10 | nombre de redressements, 3ème minute (moyenne) (souris; [8]): 9 | nombre de redressements, Total (moyenne) (souris; [8]): 33 | nombre de redressements, 1ère minute (moyenne) (souris; [9]): 14 | nombre de redressements, 2ème minute (moyenne) (souris; [9]): 8 | nombre de redressements, 3ème minute (moyenne) (souris; [9]): 7 | nombre de redressements, Total (moyenne) (souris; [9]): 29 | nombre de redressements, 1ère minute (moyenne) (souris; [10]): 15 | nombre de redressements, 2ème minute (moyenne) (souris; [10]): 9 | nombre de redressements, 3ème minute (moyenne) (souris; [10]): 6 | nombre de redressements, Total (moyenne) (souris; [10]): 30 | nombre de redressements, 1ère minute (moyenne) (souris; [11]): 15 | nombre de redressements, 2ème minute (moyenne) (souris; [11]): augmente significativement | nombre de redressements, 3ème minute (moyenne) (souris; [11]): 7 | nombre de redressements, Total (moyenne) (souris; [11]): 32 | nombre de redressements, 2ème minute (moyenne) (souris; single dose 700 mg.kg⁻¹ P.O., 60 min before test, listed as Mag): 10 | nombre de redressements, 1ère minute (moyenne) (souris; [12]): 15 | nombre de redressements, 2ème minute (moyenne) (souris; [12]): augmente significativement | nombre de redressements, 3ème minute (moyenne) (souris; [12]): 8 | nombre de redressements, Total (moyenne) (souris; [12]): 34 | nombre de redressements, 2ème minute (moyenne) (souris; single dose 1400 mg.kg⁻¹ P.O., 60 min before test, listed as Mag): 11
